Where a name gives a salt, the structure may show the parent alone.
What was measured:
[1] = target: T1, human IGF1R (Homo sapiens, UniProt P08069); assay: Inhibition of insulin-like growth factor-1 receptor phosphorylation in R+ cells; format: cell-based; conditions: 30 nM IGF1, read-out: IGF cell class
T1 construct: expressed in transfected cells; host or cells: R+ cells (R- mouse fibroblasts transfected with human IGF1R)
Description: This immunofluorescence end point cell assay measures the ability of a test compound to reduce the measured levels of IGF1R phosphorylation after IGF1 stimulation in R^+ cells. […] were derived by transfection of R^− mouse fibroblast cells with human IGF1R.
(+5% CO2) incubator for 30 minutes.
Following the compound treatment, the R^+ cells were stimulated with a final concentration of 30 nM IGF1 (Gropep 1M001) for 20 minutes at 37° C. […] Plates were incubated for 1 hour at room temperature. […] Additionally, in-house antibodies raised against phospho […] were also used at a suitable titre determined for each batch.
The plates were incubated at room temperature for one hour. […] After addition of 100 μl/well PBS the plates were sealed with a black seal.
The Green Fluorescent phospho IGF1R -associated signal in each well was measured using an Acumen Explorer HTS Reader (TTP Labtech Ltd., Cambridge). […] The instrument is a laser-scanning fluorescence microplate cytometer, which samples the well at regular intervals and uses threshold algorithms to identify all fluorescent intensities above the solution background without the need to generate and analyse an image. These fluorescent objects can be quantified and provide a measure of the phospho IGF1R levels in cells. Fluorescence dose response data obtained with each compound was exported into a suitable software package (such as Origin) to perform curve fitting analysis. Phospho-IGF1R levels in response to compound treatment versus stimulated and unstimulated controls were expressed as an IC50 value.

[2] = target: FGFR1 kinase (Homo sapiens, UniProt P11362); assay: Kinase assay (using Caliper technology); format: biochemical; conditions: FGFR1 kinase, Caliper; upper bound of bin; read-out: IC50
Chain of FGFR1 kinase (P11362 22-822): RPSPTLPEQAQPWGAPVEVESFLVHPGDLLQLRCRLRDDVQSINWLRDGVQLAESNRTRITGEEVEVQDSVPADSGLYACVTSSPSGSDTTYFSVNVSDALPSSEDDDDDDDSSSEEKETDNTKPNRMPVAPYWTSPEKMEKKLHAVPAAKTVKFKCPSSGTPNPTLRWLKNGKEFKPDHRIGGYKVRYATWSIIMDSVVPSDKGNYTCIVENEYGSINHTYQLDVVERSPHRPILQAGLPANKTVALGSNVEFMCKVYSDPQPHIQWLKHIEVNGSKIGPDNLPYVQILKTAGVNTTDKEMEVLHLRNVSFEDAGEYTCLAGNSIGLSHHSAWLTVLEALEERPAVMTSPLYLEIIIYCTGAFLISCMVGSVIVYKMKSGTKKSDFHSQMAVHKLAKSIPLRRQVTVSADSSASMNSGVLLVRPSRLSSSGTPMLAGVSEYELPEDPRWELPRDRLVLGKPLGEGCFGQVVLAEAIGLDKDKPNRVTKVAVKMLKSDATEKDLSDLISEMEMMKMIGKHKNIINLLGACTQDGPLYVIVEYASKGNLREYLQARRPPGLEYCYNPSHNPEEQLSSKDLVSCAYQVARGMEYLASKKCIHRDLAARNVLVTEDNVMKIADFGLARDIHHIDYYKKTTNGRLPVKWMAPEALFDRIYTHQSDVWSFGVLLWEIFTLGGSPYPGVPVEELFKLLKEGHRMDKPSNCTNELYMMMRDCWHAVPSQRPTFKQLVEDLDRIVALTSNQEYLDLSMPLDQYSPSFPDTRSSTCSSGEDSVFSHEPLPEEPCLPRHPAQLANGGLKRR
Description: To determine inhibition of FGFR activity, kinase assays were conducted using Caliper technology.
Kinase activity assays were performed in Greiner 384-well low volume plates, with a total reaction volume of 12ul per well. […] The substrate for each assay was a custom peptide with fluorescent tag (13 amino acids in length) the sequence of which was specific for FGFR1 kinase.
Compounds were serially diluted in 5% (v/v) DMSO, before being added to assay plates.
Assay plates were incubated at room temperature for 1.5 h, before the reaction was stopped with the addition of buffer [comprising: 100 mM HEPES—pH7.5, 0.033% Brij-35, 0.22% Caliper Coating Reagent #3, 88mM EDTA, 5% DMSO]. Stopped assay plates were then read using the Caliper LabChip® LC3000 (which uses microfludics to measure a shift in mobility between fluorescent labelled peptide and the FGFR1 kinase—phosphorylated form of this peptide).

[3] = target: T2, FGFR1 IIIc (Homo sapiens, UniProt P11362); assay: Cell based inhibition of transiently expressed FGFR1 IIIc phosphorylation via use of ECHO technology (Cos-1 cells); conditions: Cos-1 cells, phospho-FGFR1, ECHO dosing; upper bound of bin; read-out: IC50
T2 construct: host or cells: Cos-1
T2 sequence (P11362 22-822): as above
Description: This assay is designed to detect inhibitors of transiently expressed FGFR1 phosphorylation by antibody staining of fixed cells detected using ArrayScan technology.
To undertake the assay, Cos-1 cells were harvested at 90-95% confluence for cell transfection. For each 96-well plate, 24μl Lipofectamine 2000 was added to 809 ul OptiMEM and incubated at room temperature for 5 minutes. […] Equal volumes of DNA and Lipofectamine 2000 were combined (DNA: Lipid=1:1.2 ratio) and incubated at room temperature for 20 minutes.
The harvested Cos-1 cells are counted using a coulter counter and diluted further with 1% FCS/DMEM to 2.5×10^5 cells/ml. For each 96-well, 8.33 ml cells were required. […] 70 μl of media was aspirated from the assay plate using the Quadra before the plate was transferred onto the ECHO 550. […] Compound transfer to the assay plate on the ECHO 550 was at concentration ranges 1)10 μM, 2) 3 μM, 3) 1 μM, 4) 0.3 μM, 5) 0.1 μM, 6) […].
The plates were gently tapped to mix compound in with the cell media and left to incubate at 37° C. with 5% CO2 for 1 hour.
Media was removed from the wells using vacuum aspiration; cells were fixed by adding 50 μl of 100% methanol to each well and incubated at room temperature for 20 minutes.
The plates were read on an Arrayscan (Cellomics).

T1 sequence (P08069 31-1367): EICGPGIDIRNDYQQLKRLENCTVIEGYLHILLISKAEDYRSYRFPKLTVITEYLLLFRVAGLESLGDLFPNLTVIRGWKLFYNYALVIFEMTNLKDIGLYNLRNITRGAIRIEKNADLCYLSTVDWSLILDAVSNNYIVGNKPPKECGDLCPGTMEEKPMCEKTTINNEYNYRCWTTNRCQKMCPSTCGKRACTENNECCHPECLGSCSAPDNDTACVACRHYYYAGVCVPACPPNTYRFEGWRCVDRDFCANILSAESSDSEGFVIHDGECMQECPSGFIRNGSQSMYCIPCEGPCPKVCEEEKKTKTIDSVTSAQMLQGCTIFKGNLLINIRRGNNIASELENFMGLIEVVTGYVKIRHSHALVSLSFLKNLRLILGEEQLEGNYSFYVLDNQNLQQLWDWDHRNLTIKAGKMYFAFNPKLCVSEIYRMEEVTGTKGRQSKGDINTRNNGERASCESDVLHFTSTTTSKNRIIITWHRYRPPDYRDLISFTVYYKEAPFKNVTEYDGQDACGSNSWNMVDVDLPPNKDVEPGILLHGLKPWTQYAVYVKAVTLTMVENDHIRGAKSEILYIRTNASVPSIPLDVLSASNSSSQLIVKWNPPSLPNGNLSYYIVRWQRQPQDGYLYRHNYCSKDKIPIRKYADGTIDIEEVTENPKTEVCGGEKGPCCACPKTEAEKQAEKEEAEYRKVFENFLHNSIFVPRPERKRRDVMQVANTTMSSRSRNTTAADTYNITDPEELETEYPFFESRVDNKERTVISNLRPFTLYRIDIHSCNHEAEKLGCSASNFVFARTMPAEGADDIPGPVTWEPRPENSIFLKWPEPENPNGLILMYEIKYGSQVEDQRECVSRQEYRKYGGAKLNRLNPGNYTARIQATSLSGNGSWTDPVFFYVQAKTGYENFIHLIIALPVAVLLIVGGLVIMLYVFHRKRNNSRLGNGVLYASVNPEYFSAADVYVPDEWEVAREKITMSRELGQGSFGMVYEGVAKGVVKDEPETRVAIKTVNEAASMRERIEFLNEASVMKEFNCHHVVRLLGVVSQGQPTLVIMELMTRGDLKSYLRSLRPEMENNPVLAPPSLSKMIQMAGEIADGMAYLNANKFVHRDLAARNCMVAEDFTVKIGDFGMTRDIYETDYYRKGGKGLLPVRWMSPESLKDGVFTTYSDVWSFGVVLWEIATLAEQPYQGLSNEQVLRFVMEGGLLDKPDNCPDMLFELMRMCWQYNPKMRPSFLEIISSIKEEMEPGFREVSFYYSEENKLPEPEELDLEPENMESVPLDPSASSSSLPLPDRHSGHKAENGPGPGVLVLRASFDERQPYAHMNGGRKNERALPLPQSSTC

IC50 [1] | IC50 [2] | IC50 [3] | Compound
> 10 µM | < 10 µM | – | COCC(C)Oc1cc(Nc2ccnc(NCc3cc(C)no3)n2)n[nH]1 (centres unmarked) [Example 75, N′-[5-(1-methoxypropan-2-yloxy)-1H-pyrazol-3-yl]-N-[(3-methyl-1,2-oxazol-5-yl)methyl]pyrimidine-2,4-diamine]
> 10 µM | < 10 µM | – | CCOc1ccc(COc2cc(Nc3ccnc(NCc4cc(C)no4)n3)n[nH]2)cc1OC [Example 99, N′-[5-[(4-ethoxy-3-methoxy-phenyl)methoxy]-1H-pyrazol-3-yl]-N-[(3-methyl1,2-oxazol-5-yl)methyl]pyrimidine-2,4-diamine]
– | < 0.2 µM | < 0.2 µM | COc1cc(CCc2cc(Nc3ccnc(NCc4cc(C)no4)n3)n[nH]2)cc(OC)n1 [Example 124, N′-[5-[2-(2,6-dimethoxypyridin-4-yl)ethyl]-1H-pyrazol-3-yl]-N-[(3-methyl-1,2-oxazol-5-yl)methyl]pyrimidine-2,4-diamine]
– | < 1 µM | < 30 µM | COc1cncc(CCc2cc(Nc3ccnc(NCc4cc(CN(C)C)no4)n3)n[nH]2)c1 [Example 127, N-[[3-(dimethylaminomethyl)-1,2-oxazol-5-yl]methyl]-N′-[5-[2-(5-methoxypyridin-3-yl)ethyl]-1H-pyrazol-3-yl]pyrimidine-2,4-diamine]
– | < 10 µM | < 1 µM | COc1ccc(CCc2cc(Nc3ccnc(NCc4cc(C)no4)n3)n[nH]2)s1 [Example 129, N′-[5-[2-(5-methoxythiophen-2-yl)ethyl]-1H-pyrazol-3-yl]-N-[(3-methyl-1,2-oxazol-5-yl)methyl]pyrimidine-2,4-diamine]
– | < 1 µM | < 10 µM | COc1ncc(CCc2cc(Nc3ccnc(NCc4cc(C)no4)n3)n[nH]2)s1 [Example 130, N′-[5-[2-(2-methoxy-1,3-thiazol-5-yl)ethyl]-1H-pyrazol-3-yl]-N-[(3-methyl-1,2-oxazol-5-yl)methyl]pyrimidine-2,4-diamine]
– | < 0.2 µM | < 0.2 µM | COc1cc(C)cc(COc2cc(Nc3ccnc(NCc4cc(C)no4)n3)n[nH]2)c1 [Example 131, N′-[5-[(3-methoxy-5-methyl-phenyl)methoxy]-1H-pyrazol-3-yl]-N-[(3-methyl-1,2-oxazol-5-yl)methyl]pyrimidine-2,4-diamine]
– | < 0.2 µM | < 10 µM | Cc1cc(CNc2nccc(Nc3cc(CCc4cccc(Oc5ncccn5)c4)[nH]n3)n2)on1 [Example 133, N-[(3-methyl-1,2-oxazol-5-yl)methyl]-N′-[5-[2-(3-pyrimidin-2-yloxyphenyl)ethyl]-1H-pyrazol-3-yl]pyrimidine-2,4-diamine hydrochloride]
– | < 10 µM | < 30 µM | Cc1cc(CNc2nccc(Nc3cc(CCc4cccc(=O)[nH]4)[nH]n3)n2)on1 [Example 134, 6-[2-[5-[[2-[(3-methyl-1,2-oxazol-5-yl)methylamino]pyrimidin-4-yl]amino]-2H-pyrazol-3-yl]ethyl]-1H-pyridin-2-one dihydrochloride]
– | < 1 µM | < 10 µM | COc1cc(CCc2cc(Nc3ccnc(NCc4cc(CN(C)C)no4)n3)n[nH]2)c(F)cn1 [Example 136, N-[[3-(dimethylaminomethyl)-1,2-oxazol-5-yl]methyl]-N′-[5-[2-(5-fluoro-2-methoxy-pyridin-4-yl)ethyl]-1H-pyrazol-3-yl]pyrimidine-2,4-diamine]
– | < 1 µM | < 10 µM | COc1cncc(CCc2cc(Nc3ccnc(NCc4cc(C)no4)n3)n[nH]2)c1 [Example 138, N′-[5-[2-(5-methoxypyridin-3-yl)ethyl]-1H-pyrazol-3-yl]-N-[(3-methyl-1,2-oxazol-5-yl)methyl]pyrimidine-2,4-diamine]
– | – | < 30 µM | COc1cc(CCc2cc(Nc3ccnc(NCc4cc(C)no4)n3)n[nH]2)cc(NC(C)=O)c1 [Example 139, N-[3-methoxy-5-[2-[5-[[2-[(3-methyl-1,2-oxazol-5-yl)methylamino]pyrimidin-4-yl]amino]-2H-pyrazol-3-yl]ethyl]phenyl]acetamide]

Continued, molecule first:

Compound | IC50 [1] | IC50 [2] | IC50 [3]
COCCCc1cc(Nc2ccnc(NCc3cc(C4CC4)no3)n2)n[nH]1 [Example 18, N-[(3-cyclopropyl-1,2-oxazol-5-yl)methyl]-N′-[5-(3-methoxypropyl)-2H-pyrazol-3-yl]pyrimidine-2,4-diamine] | 1 to 10 µM | – | –
Cc1cc(CNc2nccc(Nc3cc(CCc4cccc(OC(C)C)c4)[nH]n3)n2)on1 [Example 122, N-[(3-methyl-1,2-oxazol-5-yl)methyl]-N′-[5-[2-(3-propan-2-yloxyphenyl)ethyl]-1H-pyrazol-3-yl]pyrimidine-2,4-diamine] | – | < 1 µM | < 1 µM
NC(=O)c1cc(CNc2nccc(Nc3cc(CCc4cccc(OCC5CC5)c4)[nH]n3)n2)on1 [Example 123, 5-[[[4-[[5-[2-[3-(cyclopropylmethoxy)phenyl]ethyl]-1H-pyrazol-3-yl]amino]pyrimidin-2-yl]amino]methyl]-1,2-oxazole-3-carboxamide] | – | < 1 µM | < 10 µM
Cc1cc(CNc2nccc(Nc3cc(CCc4cccc(N)c4)[nH]n3)n2)on1 [Example 125, N′-[5-[2-(3-aminophenyl)ethyl]-1H-pyrazol-3-yl]-N-[(3-methyl-1,2-oxazol-5-yl)methyl]pyrimidine-2,4-diamine] | – | < 0.2 µM | < 1 µM
COc1cc(Cl)cc(CCc2cc(Nc3ccnc(NCc4cc(C(N)=O)no4)n3)[nH]n2)c1 [Example 126, 5-[[[4-[[5-[2-(3-chloro-5-methoxy-phenyl)ethyl]-2H-pyrazol-3-yl]amino]pyrimidin-2-yl]amino]methyl]-1,2-oxazole-3-carboxamide] | – | < 0.2 µM | < 0.2 µM
CNC(=O)c1cc(CCc2cc(Nc3ccnc(NCc4cc(C)no4)n3)n[nH]2)cc(OC)c1 [Example 132, 3-Methoxy-N-methyl-5-[2-[5-[[2-[(3-methyl-1,2-oxazol-5-yl)methylamino]pyrimidin-4-yl]amino]-1H-pyrazol-3-yl]ethyl]benzamide] | – | < 0.2 µM | < 1 µM
COc1cc(COc2cc(Nc3ccnc(NCc4cc(C)no4)n3)n[nH]2)c(F)cn1 [Example 135, N′-[5-[(5-fluoro-2-methoxy-pyridin-4-yl)methoxy]-1H-pyrazol-3-yl]-N-[(3-methyl-1,2-oxazol-5-yl)methyl]pyrimidine-2,4-diamine] | – | < 0.2 µM | < 1 µM
COc1ccnc(COc2cc(Nc3ccnc(NCc4cc(C)no4)n3)n[nH]2)c1 [Example 137, N′-[5-[(4-methoxypyridin-2-yl)methoxy]-1H-pyrazol-3-yl]-N-[(3-methyl-1,2-oxazol-5-yl)methyl]pyrimidine-2,4-diamine] | – | < 1 µM | < 30 µM
CC(C)Oc1cccc(CCc2cc(Nc3ccnc(NCc4cc(C(N)=O)no4)n3)n[nH]2)c1 [Example 140, 5-[[[4-[[5-[2-(3-propan-2-yloxyphenyl)ethyl]-1H-pyrazol-3-yl]amino]pyrimidin-2-yl]amino]methyl]-1,2-oxazole-3-carboxamide] | – | – | < 10 µM
CNC(=O)c1cccc(CCc2cc(Nc3ccnc(NCc4cc(C)no4)n3)n[nH]2)c1 [Example 141, N-methyl-3-[2-[5-[[2-[(3-methyl-1,2-oxazol-5-yl)methylamino]pyrimidin-4-yl]amino]-1H-pyrazol-3-yl]ethyl]benzamide] | – | < 0.2 µM | < 1 µM

Reference: US20080004302A1, “Novel Compounds” (ASTRAZENECA AB, priority 2006, published 2008)
